Measurements: publication PMC10801772 (The Journal of Pharmacology and Experimental Therapeutics, 2024)
Where “and” joins values, the source holds several entries; their conditions need not be identical. Equal entries are not always repeated. Where two headings read alike, the source gives them in different places.

Legend:
[1] = cited from earlier work; for Brain penetration: in vivo
[2] = system: mice at terminal stages of botulism (2.2x LD50 BoNT/A, i.v.); conditions: mouse, in vivo
[3] = in vivo, po; cited from earlier work
healthy mice = conditions: mouse, in vivo
[4] = system: mice at terminal stages of botulism (2.2x LD50 BoNT/A, i.v.); conditions: mouse, in vivo; remark: listed apart in the source
[5] = system: animal models of botulism; conditions: in vivo; cited from earlier work
[6] = mouse, in vivo, sc, 2 mg/kg; cited from earlier work
patients with LEMS = conditions: human, in vivo; cited from earlier work

Nc1ccnc(N)c1 [2,4-DAP, 2,4-diaminopyridine]
Brain penetration [1]: poor brain penetration
Relative effects on TV versus RR [2]: increased TV and RR by roughly equal proportions

Nc1ccncc1F [3F-4AP, 4-amino-3-fluoropyridine]
CNS permeability ([1]; not told): CNS-permeable
Relative effects on TV versus RR [2]: more potent effects on RR
Symptomatic benefits compared with the other effective aminopyridines [2]: modest and short in duration

Nc1c(F)cncc1F [3,5DF-4AP, 4-amino-3,5-difluoropyridine]
Effects on ventilatory parameters (MV, TV, RR) [2]: indistinguishable from vehicle

Nc1ccnc(F)c1 [2F-4AP, 4-amino-2-fluoropyridine]
Effects on ventilatory parameters (MV, TV, RR) [2]: indistinguishable from vehicle

Nc1ccncc1N [amifampridine]
Maximum blood levels [3]: 38.6 ± 9.2 ng/mL

Nc1ccncc1 [4-AP, 4-aminopyridine]
Blood brain barrier permeability relative to 3,4-DAP ([1]; not told): approximately sixfold greater
Effect on MV (healthy mice): no changes in MV
Effect on RR (healthy mice): significantly increased RR
Effect on TV (healthy mice): concomitant reductions in TV
Relative effects on TV versus RR [2]: increased TV and RR by roughly equal proportions

Nc1ccncc1N [3,4-DAP, 3,4-diaminopyridine]
Blood gas levels [4]: did not improve
Lactate [4]: did not show any significant improvement
Time to improvement in blood gas levels [4]: 45 min and < 30 min
Time to reversal of respiratory acidosis (pCO2, HCO3-, pH, lactate) [4]: ≤ 30 minutes
pCO2, pH and HCO3- [4]: improved
Effect on pO2 levels ([4]; sc): Neither intoxication nor 3,4-DAP treatment had an effect on pO2 levels
Exposure required for reversal of botulism symptoms [5]: 125 ng/mL
Effect on MV (healthy mice): no changes in MV
Effect on RR (healthy mice): significantly increased RR
Effect on TV (healthy mice): concomitant reductions in TV
Effect on ventilatory parameters (TV, RR, MV, mid-expiratory flow, peak inspiratory flow, peak expiratory flow, expired volume, enhanced pause) [2]: significantly improved
Lowest dose to produce an unambiguous peak response in MV [2]: 0.25 mg/kg
Relative effects on TV versus RR [2]: more potent effects on TV
Time after treatment at which MV significantly improved [2]: 10 min
Time after treatment to maximum effect on MV [2]: 25 to 30 min
Time after which ventilatory parameters began to decline [2]: approximately 30 minutes
Time up to which all ventilatory parameters remained significantly improved compared with vehicle [2]: 90 min
Doses that increased both ventilatory parameters and respiration ([2]; sc): ≥ 0.25 mg/kg
Maximum blood levels [6]: 840 ng/mL
Exposure needed for typical patients with LEMS (patients with LEMS): 32 ng/mL

[2H]c1nc([2H])c(N)c(N)c1[2H] [3,4-DAP-d3, 3,4-diaminopyridine-d3]
CNS permeability / brain penetration ([1]; not told): low central nervous system (CNS) permeability
Relative effects on TV versus RR [2]: more potent effects on TV

[2H]c1nc([2H])c([2H])c(N)c1[2H] [4-AP-d4, 4-aminopyridine-d4]
Relative effects on TV versus RR [2]: increased TV and RR by roughly equal proportions

Nc1cncc(N)c1N [3,4,5-TAP, 3,4,5-triaminopyridine]
Brain penetration [1]: poor brain penetration
Relative effects on TV versus RR [2]: increased TV and RR by roughly equal proportions
